Experimental data as given in ChEMBL document CHEMBL4431345, “A fluorescence polarization based assay for the identification and characterization of polymerase inhibitors” (Bioorg Med Chem Lett, 2016).

What was measured:
[1] = Inhibition of Escherichia coli DNA polymerase 1 Klenow fragment preincubated for 15 mins followed by addition of DNA substrate for 60 mins in presence of dNTPS by picoGreen reagent based assay
[2] = Inhibition of Escherichia coli DNA polymerase 1 Klenow fragment preincubated for 15 mins followed by addition of DNA substrate for 60 mins in presence of dNTPS/TAMRA tracer by fluorescence polarization assay

IC50 [1]: 69 µM
IC50 [2]: 27 µM
Compound: Nc1ncnc2c1ncn2[C@H]1CC[C@@H](COP(=O)(O)OP(=O)(O)OP(=O)(O)O)O1 [DDA-TRIPHOSPHATE]
